From ChEMBL document CHEMBL1201862, “PubChem BioAssay data set” (2004)
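Five concentrations, 48 hours, 96-well plates. Here, GI50 denotes the concentration required for 50% inhibition of growth.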 The source made the active and inactive calls. Cut-off read from the data, not from the text of the source: active = GI50 up to about 1.1 µM and inactive = higher.

What was measured:
Assay in all cases: NCI anticancer screen, dose series, 48 h
ACHN = system: ACHN
MCF7 = system: MCF7
SR = system: SR
OVCAR-8 = system: OVCAR-8
MOLT-4 = system: MOLT-4
SW-620 = system: SW-620
UACC-62 = system: UACC-62
CAKI-1 = system: CAKI-1
SK-MEL-2 = system: SK-MEL-2
OVCAR-3 = system: OVCAR-3
SNB-19 = system: SNB-19
UO-31 = system: UO-31
NCI-H522 = system: NCI-H522
LOX IMVI = system: LOX IMVI
HOP-92 = system: HOP-92
OVCAR-4 = system: OVCAR-4
DU-145 = system: DU-145
SK-OV-3 = system: SK-OV-3
NCI-H23 = system: NCI-H23
HCT-15 = system: HCT-15

| Structure (SMILES) | GI50 (ACHN) | GI50 (MCF7) | GI50 (SR) | GI50 (OVCAR-8) | GI50 (MOLT-4) | GI50 (SW-620) | GI50 (UACC-62) | GI50 (CAKI-1) | GI50 (SK-MEL-2) | GI50 (OVCAR-3) | GI50 (SNB-19) | GI50 (UO-31) | GI50 (NCI-H522) | GI50 (LOX IMVI) | GI50 (HOP-92) | GI50 (OVCAR-4) | GI50 (DU-145) | GI50 (SK-OV-3) | GI50 (NCI-H23) | GI50 (HCT-15) [µM] |
| --- | --- | --- | --- | --- | --- | --- | --- | --- | --- | --- | --- | --- | --- | --- | --- | --- | --- | --- | --- | --- |
| O=[N+]([O-])c1ccc(-[n+]2ccc3ccccc3c2)c([N+](=O)[O-])c1 | 2.02 µM (inactive) | 1.88 µM (inactive) | 3.42 µM (inactive) | 2.47 µM (inactive) | 2.83 µM (inactive) | 1.95 µM (inactive) | 2.28 µM (inactive) | 4.14 µM (inactive) | 11.1 µM (inactive) | 2.55 µM (inactive) | 18.1 µM (inactive) | 5.02 µM (inactive) | 2.1 µM (inactive) | 1.95 µM (inactive) | 2.48 µM (inactive) | 1.56 µM (inactive) | 14.6 µM (inactive) | 14.1 µM (inactive) | 2.43 µM (inactive) | 1.86 |
| O=C(CSc1ncccn1)N/N=C/c1ccccc1OCc1ccccc1 | 35.2 µM (inactive) | 17.6 µM (inactive) | 4.23 µM (inactive) | 28.7 µM (inactive) | 20.2 µM (inactive) | 29.6 µM (inactive) | 20.9 µM (inactive) | 26.4 µM (inactive) | 21.3 µM (inactive) | 16.4 µM (inactive) | 45.3 µM (inactive) | 44.5 µM (inactive) | 28.4 µM (inactive) | 17.4 µM (inactive) | 16.9 µM (inactive) | 22.8 µM (inactive) | 29.8 µM (inactive) | 37.6 µM (inactive) | 32.3 µM (inactive) | 17.3 |
| COc1ccc(C2SCC(=O)N2c2ccc(-n3c(-c4ccccc4)nc4ccccc4c3=O)cc2)cc1 (stereo not given) | > 100 µM (inactive) | 98.4 µM (inactive) | 45 µM (inactive) | > 100 µM (inactive) | 24.6 µM (inactive) | > 100 µM (inactive) | 17.8 µM (inactive) | > 100 µM (inactive) | 6.95 µM (inactive) | > 100 µM (inactive) | > 100 µM (inactive) | 25.3 µM (inactive) | 36.4 µM (inactive) | > 100 µM (inactive) | 46.7 µM (inactive) | > 100 µM (inactive) | > 100 µM (inactive) | 73.3 µM (inactive) | > 100 µM (inactive) | 48.5 |
| O=C1C(c2cnc3ccccc3n2)=C(O)c2ccccc21 | > 86.5 µM (inactive) | 10.3 µM (inactive) | > 59.7 µM (inactive) | > 75.7 µM (inactive) | > 70.5 µM (inactive) | > 56.2 µM (inactive) | > 100 µM (inactive) | > 24.5 µM (inactive) | > 100 µM (inactive) | > 100 µM (inactive) | > 85.3 µM (inactive) | > 100 µM (inactive) | > 72.9 µM (inactive) | 47.3 µM (inactive) | > 100 µM (inactive) | > 53.6 µM (inactive) | > 100 µM (inactive) | > 46.5 µM (inactive) | > 100 µM (inactive) | 1.16 |
| CCC(C)C(C(=O)N/N=C1/SCC(=O)N1c1ccccc1)C(=O)N/N=C1/SCC(=O)N1c1ccccc1 (stereo not given) | > 100 µM (inactive) | 34.1 µM (inactive) | 40.6 µM (inactive) | 39.7 µM (inactive) | 36 µM (inactive) | 41.9 µM (inactive) | 20 µM (inactive) | > 100 µM (inactive) | 33.7 µM (inactive) | 28.6 µM (inactive) | > 100 µM (inactive) | > 100 µM (inactive) | 56.9 µM (inactive) | 38.4 µM (inactive) | 19 µM (inactive) | 16.4 µM (inactive) | 43.5 µM (inactive) | 22.2 µM (inactive) | 36.6 µM (inactive) | > 100 |
| COc1ccc(C[C@H]2COC(=O)[C@@H]2Cc2cc(OC)c(OC)c(OC)c2)cc1OC | > 100 µM (inactive) | > 64 µM (inactive) | 5.9 µM (inactive) | 50.1 µM (inactive) | 32.4 µM (inactive) | > 100 µM (inactive) | 72.1 µM (inactive) | > 100 µM (inactive) | > 88.3 µM (inactive) | > 89.1 µM (inactive) | > 100 µM (inactive) | 43.6 µM (inactive) | > 68.7 µM (inactive) | > 74.1 µM (inactive) | 16 µM (inactive) | > 61.7 µM (inactive) | > 100 µM (inactive) | > 100 µM (inactive) | 99.3 µM (inactive) | > 100 |
| COc1ccc(-c2c(N)n(-c3cc(OC)cc(OC)c3)c(=O)c3cc([N+](=O)[O-])ccc23)cc1 | > 100 µM (inactive) | 29.3 µM (inactive) | 27.4 µM (inactive) | > 100 µM (inactive) | > 60.7 µM (inactive) | > 87.7 µM (inactive) | 99.3 µM (inactive) | 31.4 µM (inactive) | > 100 µM (inactive) | 24.4 µM (inactive) | 28.3 µM (inactive) | > 23.3 µM (inactive) | 5.19 µM (inactive) | 24.7 µM (inactive) | 3.21 µM (inactive) | 18.2 µM (inactive) | > 100 µM (inactive) | > 100 µM (inactive) | > 92 µM (inactive) | > 54.5 |
| COC1/C=C\C=C(/C)C(=O)NC2=CC(=O)C(O)=C(CC(C)CC(OC)C(O)C(C)/C=C(\C)C1OC(N)=O)C2=O (stereo not given) | 2.81 µM (inactive) | 0.0826 µM (active) | 0.0406 µM (active) | 0.351 µM (active) | 0.0959 µM (active) | 0.0158 µM (active) | 0.382 µM (active) | 2.55 µM (inactive) | 0.893 µM (active) | 0.325 µM (active) | 15.8 µM (inactive) | 3.95 µM (inactive) | 0.0596 µM (active) | 0.406 µM (active) | 0.382 µM (active) | 10.3 µM (inactive) | 0.115 µM (active) | 3.59 µM (inactive) | 0.482 µM (active) | 2.26 |
| CCOn1c(C2(CC3CCN(C(=O)c4ccccc4)CC3)OCCO2)cc2ccccc21 | 14.6 µM (inactive) | 14.8 µM (inactive) | 6.27 µM (inactive) | 14.3 µM (inactive) | 12.8 µM (inactive) | 15.8 µM (inactive) | 11 µM (inactive) | 15.4 µM (inactive) | 16.8 µM (inactive) | 16.4 µM (inactive) | 16.7 µM (inactive) | 14 µM (inactive) | 19.3 µM (inactive) | 15.7 µM (inactive) | 10.9 µM (inactive) | 15.2 µM (inactive) | 18.1 µM (inactive) | 19.3 µM (inactive) | 19.5 µM (inactive) | 22.5 |
| O=S(=O)(O)c1ccc(-c2nnc(-c3ccccn3)nc2-c2ccc(S(=O)(=O)O)o2)o1 | > 100 µM (inactive) | > 100 µM (inactive) | > 100 µM (inactive) | > 100 µM (inactive) | > 100 µM (inactive) | > 100 µM (inactive) | > 100 µM (inactive) | > 100 µM (inactive) | > 100 µM (inactive) | > 100 µM (inactive) | > 100 µM (inactive) | > 100 µM (inactive) | > 100 µM (inactive) | > 100 µM (inactive) | > 100 µM (inactive) | > 100 µM (inactive) | > 100 µM (inactive) | > 100 µM (inactive) | > 100 µM (inactive) | > 100 |
